Here are results for 27 compounds from patent US7601746B2 (Shionogi & Co., Ltd., priority 2003, dated 2009).

This assay deals with T1, human TPO receptor (hTPOR) (Homo sapiens, UniProt P40238).
T1 construct: expressed in transfected cells; host or cells: BaF-B03 (murine IL-3 dependent cell line)
T1 sequence (P40238 26-635): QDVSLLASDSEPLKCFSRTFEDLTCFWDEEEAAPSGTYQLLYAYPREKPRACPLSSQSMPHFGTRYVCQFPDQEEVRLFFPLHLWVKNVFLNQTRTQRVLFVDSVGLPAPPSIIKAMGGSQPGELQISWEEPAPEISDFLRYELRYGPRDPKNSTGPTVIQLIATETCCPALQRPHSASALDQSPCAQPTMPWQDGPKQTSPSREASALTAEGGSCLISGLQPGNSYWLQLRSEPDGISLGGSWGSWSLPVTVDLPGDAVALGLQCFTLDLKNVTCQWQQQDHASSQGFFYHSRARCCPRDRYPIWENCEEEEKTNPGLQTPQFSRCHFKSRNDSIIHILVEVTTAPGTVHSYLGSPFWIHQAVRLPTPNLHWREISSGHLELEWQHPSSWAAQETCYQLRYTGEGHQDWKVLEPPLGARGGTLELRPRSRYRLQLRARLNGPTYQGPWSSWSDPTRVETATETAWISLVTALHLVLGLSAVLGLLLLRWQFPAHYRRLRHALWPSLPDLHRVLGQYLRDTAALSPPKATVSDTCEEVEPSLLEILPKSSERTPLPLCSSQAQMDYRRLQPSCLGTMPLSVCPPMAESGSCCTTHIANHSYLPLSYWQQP
Put plainly: Thrombopoietic activity: proliferation of TPO dependent BaF/hTPOR cells (WST-1, absorbance at 450 nm). It counts as cell-based. To be noted: 20 h + 4 h WST-1, ED50 = half concentration of the concentration showing the maximum thrombopoietic activity, Table 1. In a few lines: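 Proliferation read-out: WST-1 absorbance at 450 nm after 20 h compound exposure plus 4 h reagent, using IL-3-deprived BaF/hTPOR cells (5×10^4 per well) dependent on human TPO receptor signalling. ED50 defined as half the concentration producing maximal activity.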
In general, EC50 refers to the concentration needed to bring the measured effect to its halfway point. `COc1c(COCCC(C)(C)C)cccc1-c1csc(NC(=O)c2cc(F)c(/C=C(\C)C(=O)O)c(F)c2)n1` [Compound B1934, (E)-3-(4-{4-[3-(3,3-dimethylbutyloxymethyl)-2-methyloxyphenyl]thiazol-2-ylcarbamoyl}-2,6-difluorophenyl)-2-methylacrylic acid]: the EC50 is 13 nM. In the case of `CCCCCOC(CCSC)c1cccc(-c2csc(NC(=O)c3cc(F)c(C=C(C)C(=O)O)c(F)c3)n2)c1F` (stereo not drawn) [Compound B16, 3-(2,6-difluoro-4-{4-[2-fluoro-3-(3-methylthio-1-n-pentyloxypropyl)phenyl]thiazol-2-ylcarbamoyl}phenyl)-2-methylacrylic acid] it was 0.77 nM; in that of `CCCCCCOCCc1cccc(-c2csc(NC(=O)c3cc(F)c(/C=C(\OC)C(=O)O)c(F)c3)n2)c1OC` [Compound B1927, (Z)-3-(2,6-difluoro-4-{4-[3-(2-hexyloxyethyl)-2-methyloxyphenyl]thiazol-2-ylcarbamoyl)phenyl)-2-methyloxyacrylic acid], 19.4 nM; in that of `CCCc1cccc2c1OCc1sc(NC(=O)c3cc(Cl)c(/C=C(\C)C(=O)O)c(Cl)c3)nc1-2` [Compound A1311, (E)-3-[2,6-dichloro-4-(6-propyl-4H-chromeno[4,3-d]thiazol-2-ylcabamoyl)phenyl]-2-methylacrylic acid], 8.86 nM.

Turning to `CCCCCCOCc1cccc(-c2csc(NC(=O)c3cc(F)c(/C=C(\C)C(=O)O)c(F)c3)n2)c1OC` [Compound B1992, (E)-3-{2,6-difluoro-4-[4-(3-hexyloxymethyl-2-methyloxyphenyl)thiazol-2-ylcarbamoyl]phenyl}-2-methylacrylic acid], the 50% effective concentration (EC50) was found to be 13.1 nM. To `CCCCCC(CCc1cccc(-c2csc(NC(=O)c3cc(Cl)c(C=C(C)C(=O)O)c(Cl)c3)n2)c1F)OC` (stereo not drawn) [Compound B73, 3-(2,6-dichloro-4-{4-[2-fluoro-3-(3-methyloxyoctyl)phenyl]thiazol-2-ylcarbamoyl}phenyl)-2-methylacrylic acid] belongs 1.35 nM; to `CCCCCCOCCC(OC)c1cccc(-c2csc(NC(=O)c3cc(Cl)c(C=C(C)C(=O)O)c(Cl)c3)n2)c1F` (stereo not drawn) [Compound B101, 3-(2,6-dichloro-4-{4-[2-fluoro-3-(3-n-hexyloxy-1-methyloxypropyl)phenyl]thiazol-2-ylcarbamoyl)phenyl]-2-methylacrylic acid], 1.9 nM; to `CCCCCOCc1cccc(-c2csc(NC(=O)c3cc(F)c(/C=C(\C)C(=O)O)c(F)c3)n2)c1OC` [Compound B1884], 16.9 nM. As to “3-[2,6-difluoro-4-(4-{2-fluoro-3-{1-(3-methylbutyloxypropyl)phenyl]thiazol-2-ylcarbamoyl}phenyl)-2-methylacrylic acid [Compound B18]”, the EC50 was 0.57 nM. In the case of `COc1c(COCCC(C)(C)C)cccc1-c1csc(NC(=O)c2cc(Cl)c(C=C(C)C(=O)O)c(Cl)c2)n1` (stereo in doubt) [Compound B1936, (Z)-3-(2,6-dichloro-4-{4-[3-(3,3-dimethylbutyloxymethyl)-2-methyloxyphenyl]thiazol-2-ylcarbamoyl}phenyl)-2-methylacrylic acid] it was 17.1 nM; in that of `CCCCOC(CCCC)c1cccc(-c2csc(NC(=O)c3cc(F)c(C=C(C)C(=O)O)c(F)c3)n2)c1F` (stereo not drawn) [Compound B42, 3-(4-{4-[3-(1-n-butyloxypentyl)-2-fluorophenyl]thiazol-2-ylcarbamoyl}-2,6-difluorophenyl]-2-methylacrylic acid], 0.34 nM. In the case of `CCCCCOC(c1cccc(-c2csc(NC(=O)c3cc(F)c(/C=C(\C)C(=O)O)c(F)c3)n2)c1OC)C1CCCCC1` (stereo not drawn) [Compound B484] it was 1.29 nM; in that of `CCCCCOCCCC(OC)c1cccc(-c2csc(NC(=O)c3cc(F)c(C=C(C)C(=O)O)c(F)c3)n2)c1F` (stereo not drawn) [Compound B53, 3-(2,6-difluoro-4-{4-[2-fluoro-3-(1-methyloxy-4-n-pentyloxybutyl)phenyl]thiazol-2-ylcarbamoyl}phenyl)-2-methylacrylic acid], 1.4 nM. To `CCCCCCOCCc1cccc(-c2csc(NC(=O)c3cc(F)c(/C=C(\C)C(=O)O)c(F)c3)n2)c1OC` [Compound B1926, (E)-3-(2,6-difluoro-4-{4-[3-(2-hexyloxyethyl)-2-methyloxyphenyl]thiazol-2-ylcarbamoyl)phenyl)-2-methylacrylic acid] belongs 15.6 nM; to `CCCCCOCc1cccc(-c2csc(NC(=O)c3cc(F)c(C=C(C)C(=O)O)c(F)c3)n2)c1F` [Compound B33, 3-(2,6-difluoro-4-{4-[2-fluoro-3-(n-pentyloxymethyl)phenyl]thiazol-2-ylcarbamoyl}phenyl)-2-methylacrylic acid], 3.33 nM; to `COc1c(CCOCCCC(C)C)cccc1-c1csc(NC(=O)c2cc(Cl)c(/C=C(\C)C(=O)O)c(Cl)c2)n1` [Compound B1922, (E)-3-[2,6-dichloro-4-(4-{2-methyloxy-3-[2-(4-methylpentyloxy)ethyl]phenyl}thiazol-2-ylcarbamoyl)phenyl)-2-methylacrylic acid], 13.6 nM. As to `CCCCCOC(CCC)c1cccc(-c2csc(NC(=O)c3cc(F)c(C=C(C)C(=O)O)c(F)c3)n2)c1F` (stereo not drawn) [Compound B36, 3-(2,6-difluoro-4-{4-[2-fluoro-3-(1-n-pentyloxybutyl)phenyl]thiazol-2-ylcarbamoyl}phenyl)-2-methylacrylic acid], the EC50 turned out to be 0.63 nM.

Take `CCCCCCOC(CC)c1cccc(-c2csc(NC(=O)c3cc(F)c(C=C(C)C(=O)O)c(F)c3)n2)c1F` (stereo not drawn) [Compound B38, 3-(2,6-difluoro-4-{4-[2-fluoro-3-(1-n-hexyloxypropyl)phenyl]thiazol-2-ylcarbamoyl}phenyl)-2-methylacrylic acid]: the concentration for a half-maximal effect (EC50) was 0.62 nM. To `CCC(CC)COCCc1cccc(-c2csc(NC(=O)c3cc(Cl)c(/C=C(\C)C(=O)O)c(Cl)c3)n2)c1OC` [Compound B1958, (E)-3-[2,6-dichloro-4-(4-{3-[2-(2-ethylbutyloxy)ethyl]-2-methyloxyphenyl}thiazol-2-ylcarbamoyl)phenyl]-2-methylacrylic acid] belongs 7.57 nM.

Consider `CCCCCCOCCc1cccc(-c2csc(NC(=O)c3cc(Cl)c(/C=C(\C)C(=O)O)c(Cl)c3)n2)c1OC` [Compound B1928, (E)-3-(2,6-dichloro-4-{4-[3-(2-hexyloxyethyl)-2-methyloxyphenyl]thiazol-2-ylcarbamoyl)phenyl)-2-methylacrylic acid], for which the EC50 was determined as 12.6 nM. To `CCC(OCCC(C)C)c1cccc(-c2csc(NC(=O)c3cc(Cl)c(C=C(C)C(=O)O)c(Cl)c3)n2)c1F` (stereo not drawn) [Compound B74, 3-[2,6-dichloro-4-(4-{2-fluoro-3-[1-(3-methylbutyloxy)proptyl]phenyl}thiazol-2-ylcarbamoyl)phenyl]-2-methylacrylic acid] belongs 0.8 nM; to `CCOCCCCOC(c1cccc(-c2csc(NC(=O)c3cc(F)c(C=C(C)C(=O)O)c(F)c3)n2)c1F)C1CCCCC1` (stereo not drawn) [Compound B21, 3-[4-(4-{3-[1-cyclohexyl-1-(4-ethyloxybutyloxy)methyl]-2-fluorophenyl]thiazol-2-ylcarbamoyl}-2,6-difluorophenyl)-2-methylacrylic acid], 0.67 nM; to `CC(=Cc1c(Cl)cc(C(=O)Nc2nc(-c3cccc(CCCOCC(C)(C)C)c3F)cs2)cc1Cl)C(=O)O` [Compound B66, 3-[2,6-dichloro-4-(4-{3-[3-(2,2-dimethylpropyloxy)propyl]-2-fluorophenyl]thiazol-2-ylcarbamoyl}phenyl)-2-methylacrylic acid], 0.91 nM. Take `CCOC(CC(C)(C)C)c1cccc(-c2csc(NC(=O)c3cc(Cl)c(C=C(C)C(=O)O)c(Cl)c3)n2)c1F` (stereo not drawn) [Compound B62, 3-(2,6-dichloro-4-{4-[2-fluoro-3-(1-ethyloxy-3,3-dimethylbutyl)phenyl]thiazol-2-ylcarbamoyl}phenyl)-2-methylacrylic acid]: the EC50 is 0.76 nM. As to `CCCCC(OCC)c1cccc(-c2csc(NC(=O)c3cc(Cl)c(C=C(C)C(=O)O)c(Cl)c3)n2)c1F` (stereo not drawn) [Compound B71, 3-(2,6-dichloro-4-{4-[3-(1-ethyloxypentyl)-2-fluorophenyl]thiazol-2-ylcarbamoyl}phenyl)-2-methylacrylic acid], the concentration giving a half-maximal response (EC50) came out at 1 nM. For `CC(=Cc1c(F)cc(C(=O)Nc2nc3c(s2)CCc2c(CCCOCC(C)(C)C)cccc2-3)cc1F)C(=O)O` [Compound A6, 3-(2,6-difluoro-4-{4,5-dihydro-6-[3-(2,2-dimethylpropyloxy)propyl]naphtho[1,2-d]thiazol-2-ylcabamoyl}phenyl)-2-methylacrylic acid], the half-maximal effective concentration (EC50) was 1.04 nM. As for `CCCOCCCc1cccc(-c2csc(NC(=O)c3cc(Cl)c(C=C(C)C(=O)O)c(Cl)c3)n2)c1F` [Compound B95, 3-(2,6-dichloro-4-{4-[2-fluoro-3-(3-n-propyloxypropyl)phenyl]thiazol-2-ylcarbamoyl)phenyl]-2-methylacrylic acid], the 50% effective concentration (EC50) was 0.82 nM.
